US20090110701A1, “T-CELL MODULATION” (THE UNIVERSITY COURT OF THE UNIVERSITY OF ABERDEEN, priority 2004, published 2009)

How the values were obtained:
Assay type in all cases: cell-based, human
[1] = test system: PBMC; experiment: Proliferation assay (3H thymidine incorporation) of PBMC; settings: FIG. 5a
Method: Proliferation Assay. Cell proliferation was assessed by the incorporation of ^3H thymidine, as previously described.

[2] = test system: PBMC; experiment: sCTLA-4 secretion ELISA, PBMC from healthy adult donors
[3] = test system: PBMC; experiment: Cytokine secretion ELISA (IFN-γ, IL-10, IL-4) of PBMC cultures; settings: FIG. 5a
Method: (§1) Cytokine Secretion ELISA. ELISA were based on previously published methods and were performed from 3-7 days of in vitro cell culture. The following antibody pairs were used: purified mouse anti-IFN-γ (clone NIB42) and biotinylated mouse anti-IFN-γ (clone 4S.B3); purified mouse anti-IL-10 (clone JES3-19F1) and biotinylated mouse anti-IL-10 (clone JES3-12G8); purified mouse anti-IL-4 (clone 8D4-8) and biotinylated mouse anti-IL-4 (clone MP4-25D2) (all from BD Biosciences, Oxford, UK). All recombinant human cytokines (IFN-γ, IL-4, and IL-10) were purchased from Peprotech EC Ltd. (London, UK).

[4] = test system: Lymphocytes from patients with autoimmune haemolytic anaemia; experiment: Peptide mapping assay for sCTLA-4 production (RhD peptides); settings: 1 million lymphocytes per peptide, five days at 37° C., seven AIHA patients, FIG. 9
Method: Peptide mapping experiments to identify peptides which stimulate sCTLA-4 production were performed as follows. Each peptide (1 to 42) was derived from the RhD autoantigen. Lymphocytes (1 million per peptide) from patients with autoimmune haemolytic anaemia were added to individual peptides and incubated for five days at 37° C. At the end of this period the cell cultures were assessed for an increase in sCTLA-4 production. In these assays a stimulation index of 2 is considered a positive result (twice as much sCTLA-4 detected compared with non-stimulated control).
Certain peptides in some cases stimulated sCTLA-4 production by three, four or even ten times higher than non-stimulated cells alone.

[5] = test system: PBMC from patients with AIHA; experiment: sCTLA-4 and IL-4 secretion by PBMC from AIHA patients incubated with RhD; settings: one patient from an initial sample of six, FIG. 3
Method: FIG. 3. Differential stimulation of sCTLA-4 secretion by PBMC sampled from AIHA patients in response to incubation with RhD protein antigen.
as §1
We also developed a similar secretion ELISA for sCTLA-4 with antibodies identified previously. Briefly, sCTLA-4 was measured in vitro by incubating a capture anti-CTLA-4 antibody (clone: BNI3 2μg ml^−1) in 96 well Nunc Maxisorp plates for 2 hours at 37° C. Plates were washed and blocked with 3% BSA before the addition of test cell culture suspension. […] Developed plates were measured with a Multiskan MS microplate photometer (Life and Laboratory Sciences, Basingstoke, UK) at an absorbance of 405 nm. […]

anti-CD3 antibody: Stimulatory anti-CD3 antibody (clone OKT3) purified from hybridoma cell culture supernatants
Proliferation, PPD versus anti-CD3 cultures [1]: similar
sCTLA-4 levels compared with non-stimulated PBMC, all individuals analyzed ([2]; 12 healthy individuals, FIG. 5b, P<0.01 Wilcoxon for PPD, anti-CD3 data not shown): invariably reduced
sCTLA-4 levels in vitro compared with non-stimulated PBMC ([2]; individual donor profile, FIG. 5a, 5 days, 37° C., stimulus 5 μg ml−1): dramatically reduced
IFN-γ secretion, PPD versus anti-CD3 cultures [3]: similar
IL-10 secretion, anti-CD3 compared with PPD [3]: increase

SSKYPRSVRRCLPLW [Peptide 1, peptide derived from the RhD autoantigen, residues 2-16]
stimulation of sCTLA-4 production (stimulation index versus non-stimulated control; 2 is positive) [4]: particularly effective

B1: RhD autoantigen: AIHA-associated autoantigen RhD protein (protein, UniProt Q02161 2-417, looked up)
Blood group Rh(D) polypeptide: SSKYPRSVRRCLPLWALTLEAALILLFYFFTHYDASLEDQKGLVASYQVGQDLTVMAAIGLGFLTSSFRRHSWSSVAFNLFMLALGVQWAILLDGFLSQFPSGKVVITLFSIRLATMSALSVLISVDAVLGKVNLAQLVVMVLVEVTALGNLRMVISNIFNTDYHMNMMHIYVFAAYFGLSVAWCLPKPLPEGTEDKDQTATIPSLSAMLGALFLWMFWPSFNSALLRSPIERKNAVFNTYYAVAVSVVTAISGSSLAHPQGKISKTYVHSAVLAGGVAVGTSCHLIPSPWLAMVLGLVAGLISVGGAKYLPGCCNRVLGIPHSSIMGYNFSLLGLLGEIIYIVLLVLDTVGAGNGMIGFQVLLSIGELSLAIVIALMSGLLTGLLLNLKIWKAPHEAKYFDDQVFWKFPHLAVGF
IL-4 secretion compared with negative controls [5]: higher levels
sCTLA-4 secretion compared with negative controls [5]: higher levels
